Where two headings read alike, the source gives them in different places.

For data set [1], the system named is A431 skin cancer cells. In words: MTT in vitro cytotoxicity assay, A431. Type of data set: cell-based. The note with it: n = 3, read-out: GI50 ± SEM, A431. As for the experimental part:
(§1) The in vitro cytotoxicity assays were undertaken at Calvary Mater Hospital, Waratah, NSW, Australia, following a method previously published in the literature. A stock solution for each compound was prepared in DMSO (30 mM) and stored at −20 °C. The cell lines used in the study include HT29 colon, U87 glioblastoma, MCF-7 breast, A2780 ovarian, H460 lung, A431 skin, Du145 prostate, BE2-C neuroblastoma, SJ-G2 glioblastoma, MIA pancreas, and cisplatin-resistant ADDP ovarian (subclone of A2780) cancer cells, as well as the non-cancerous-derived MCF10A breast cell line. The cancer cell lines were cultured in a humidified atmosphere 5% CO2 at 37 °C and maintained in Dulbecco’s modified Eagle’s medium (Trace Biosciences, Sydney, Australia), supplemented with 10% foetal bovine serum, sodium bicarbonate (10 mM), penicillin (100 IU/mL), streptomycin (100 µg/mL), and glutamine (4 mM). The non-cancerous MCF10A cell line was maintained in DMEM:F12 (1:1) cell culture media, with 5% heat inactivated horse serum, supplemented with penicillin (50 IU/mL), streptomycin (50 µg/mL), glutamine (2 mM), HEPES (20 mM), epidermal growth factor (20 ng/mL), hydrocortisone (500 ng/mL), cholera toxin (100 ng/mL), and insulin (10 µg/mL). Cells were plated in duplicate in medium (100 µL) at a density of 2500–4000 cells per well in 96-well plates. On day 0, (24 h after plating) when the cells were in logarithmic growth, medium (100 μL) with or without the test agent was added to each well. The growth inhibitory effects were evaluated after 72 h drug exposure, using the MTT (3-(4,5-dimethylthiazol-2-yl)-2,5-diphenyltetrazolium bromide) assay, with the absorbance read at 540 nm. An eight-point dose–response curve was produced, which was used to determine the concentration at which growth was inhibited by 50% (GI50). This calculation was based on the difference between the optical density values on day 0 and those at the end of drug exposure. […] Experiments were conducted on three separate occasions and GI50 values were reported as the mean and standard error of the mean.

The subject of data set [2] is ADDP (subclone of A2780) versus A2780 ovarian cancer cell lines. The data set is described as follows: Resistance factor, GI50 in ADDP/GI50 in A2780. Type of data set: cell-based.
Data set [3] relates to SJ-G2 glioblastoma cells. The data set is described as follows: MTT in vitro cytotoxicity assay, SJ-G2. The data set is classed as cell-based. As to conditions: n = 3, read-out: GI50 ± SEM, SJ-G2. As for the experimental part:
as §1

Data set [4] concerns cisplatin-resistant ADDP ovarian (subclone of A2780) cancer cells. In words: MTT in vitro cytotoxicity assay, ADDP. Type of data set: cell-based. As to conditions: n = 3, read-out: GI50 ± SEM, ADDP. As for the experimental part:
as §1

In data set [5] the test system is U87 glioblastoma cells. In words: MTT in vitro cytotoxicity assay, U87. Type of data set: cell-based. As to conditions: 72 h drug exposure, n = 3, read-out: GI50 ± SEM, U87. As for the experimental part:
as §1

Data set [6] deals with A2780 ovarian cancer cells. In words: MTT in vitro cytotoxicity assay, A2780. The note with it: n = 3, read-out: GI50 ± SEM, A2780. The data set is classed as cell-based. The method, then:
as §1

In data set [7] the test system is MIA pancreas cancer cells. The data set is described as follows: MTT in vitro cytotoxicity assay, MIA. As to conditions: 72 h drug exposure, n = 3, read-out: GI50 ± SEM, MIA. The data set is classed as cell-based. The method, then:
as §1

Data set [8] deals with H460 lung cancer cells. In words: MTT in vitro cytotoxicity assay, H460. The data set is classed as cell-based. The note with it: n = 3, read-out: GI50 ± SEM, H460. The method, then: as §1
The subject of data set [9] is MCF-7 breast cancer cells. The data set is described as follows: MTT in vitro cytotoxicity assay, MCF-7. The data set is classed as cell-based. As to conditions: for GI50: MTT, 72 h drug exposure, n = 3, read-out: GI50 ± SEM, MCF-7; for selectivity towards MCF-7 compared to MCF10A (cytotoxicity): GI50 MCF10A versus GI50 MCF-7.
For data set [10], the system named is non-cancerous MCF10A breast cell line. The data set is described as follows: MTT in vitro cytotoxicity assay, MCF10A. The data set is classed as cell-based. As to conditions: 72 h drug exposure, n = 3, read-out: GI50 ± SEM, MCF10A. The method, then:
as §1

In data set [11] the test system is BE2-C neuroblastoma cells. The data set is described as follows: MTT in vitro cytotoxicity assay, BE2-C. Type of data set: cell-based. The note with it: 72 h drug exposure, n = 3, read-out: GI50 ± SEM, BE2-C. The method, then:
as §1

The test system of data set [12] is Du145 prostate cancer cells. The data set is described as follows: MTT in vitro cytotoxicity assay, Du145. As to conditions: MTT, 72 h drug exposure, n = 3, read-out: GI50 ± SEM, Du145. The data set is classed as cell-based. As for the experimental part:
as §1

Data set [13] concerns HT29 colon cancer cells. In words: MTT in vitro cytotoxicity assay, HT29. The data set is classed as cell-based. As to conditions: MTT, 72 h drug exposure, n = 3, read-out: GI50 ± SEM, HT29. As for the experimental part: as §1
Data set [14] relates to H460 lung cancer cells. On the set-up: method as in earlier work. The note with it: MTT, same method, taken from the literature; ref [18],[46],[47]; read-out: GI50 ± SEM, H460; cited from earlier work.
For data set [15], the system named is SJ-G2 glioblastoma cells. On the set-up: method as in earlier work. The note with it: MTT, same method, taken from the literature; ref [18],[46],[47]; read-out: GI50 ± SEM, SJ-G2; cited from earlier work.
For data set [16], the system named is MCF-7 breast cancer cells. The arrangement: method as in earlier work. As to conditions: MTT, same method, taken from the literature; ref [18],[46],[47]; read-out: GI50 ± SEM, MCF-7; cited from earlier work.
Data set [17] deals with A2780 ovarian cancer cells. The arrangement: method as in earlier work. The note with it: MTT, same method, taken from the literature; ref [18],[46],[47]; read-out: GI50 ± SEM, A2780; cited from earlier work.
The test system of data set [18] is Du145 prostate cancer cells. The arrangement: method as in earlier work. As to conditions: MTT, same method, taken from the literature; ref [18],[46],[47]; read-out: GI50 ± SEM, Du145; cited from earlier work.
Data set [19] has as its system cisplatin-resistant ADDP ovarian (subclone of A2780) cancer cells. The arrangement: method as in earlier work. The note with it: MTT, same method, taken from the literature; ref [18],[46],[47]; read-out: GI50 ± SEM, ADDP; cited from earlier work.
For data set [20], the system named is BE2-C neuroblastoma cells. The arrangement: method as in earlier work. The note with it: MTT, same method, taken from the literature; ref [18],[46],[47]; read-out: GI50 ± SEM, BE2-C; cited from earlier work.
For data set [21], the system named is MIA pancreas cancer cells. The arrangement: method as in earlier work. As to conditions: MTT, same method, taken from the literature; ref [18],[46],[47]; read-out: GI50 ± SEM, MIA; cited from earlier work.
Data set [22] relates to HT29 colon cancer cells. On the set-up: method as in earlier work. The note with it: MTT, same method, taken from the literature; ref [18],[46],[47]; read-out: GI50 ± SEM, HT29; cited from earlier work.
Data set [23] concerns U87 glioblastoma cells. On the set-up: method as in earlier work. The note with it: MTT, same method, taken from the literature; ref [18],[46],[47]; read-out: GI50 ± SEM, U87; cited from earlier work.
The test system of data set [24] is A431 skin cancer cells. On the set-up: method as in earlier work. The note with it: MTT, same method, taken from the literature; ref [18],[46],[47]; read-out: GI50 ± SEM, A431; cited from earlier work.
Where [25] appears, read: Homo sapiens, A2780, 72 h drug exposure.

`Cc1cc2ccc[n+]3c2c2c1ccc[n+]2[Pt-2]31[NH2+][C@H]2CCCC[C@@H]2[NH2+]1.[Cl-].[Cl-]` [5MESS(II)]: the GI50 worked out at 120 ± 25 nM in data set [1] (72 h drug exposure); 220 ± 10 nM in data set [3] (72 h drug exposure); 34 ± 2.3 nM in data set [4] (72 h drug exposure); 320 ± 26 nM in data set [5]; 61 ± 10 nM in data set [6] (72 h drug exposure); 48 ± 2 nM in data set [7]. Also, the GI50 in data set [8] (72 h drug exposure) came to 41 ± 5 nM; in [9], 200 ± 12 nM; in data set [10], 30 ± 1.8 nM; in data set [11], 270 ± 38 nM; in [12] it was 22 ± 2.7 nM; in [13] it was 33 ± 3.8 nM. The “Resistance factor (RF)” value in data set [2] is on record as 0.557.

As for `Cc1cc2ccc[n+]3c2c2c1ccc[n+]2[Pt-2]31([OH])([OH])[NH2+][C@H]2CCCC[C@@H]2[NH2+]1.O=[N+]([O-])[O-].O=[N+]([O-])[O-]` [5MESS(IV)], the GI50 in data set [1] (72 h drug exposure) was 240 ± 7 nM; in [3] (72 h drug exposure) it was 600 ± 74 nM; in [4] (72 h drug exposure), 180 ± 24 nM; in [5], 830 ± 170 nM; in data set [6] (72 h drug exposure), 110 ± 26 nM; in [7] it was 290 ± 34 nM. The GI50 in data set [8] (72 h drug exposure) was found to be 180 ± 32 nM; in data set [9] it was 560 ± 200 nM; in [10] it was 220 ± 26 nM; in data set [11] it was 1100 ± 180 nM; in [12], 36 ± 3.2 nM; in data set [13], 150 ± 9 nM. For the same molecule, in data set [2], the “Resistance factor (RF)” value is recorded as 1.636.

With `COc1cc[n+]2c3c1ccc1c(OC)cc[n+](c13)[Pt-2]21[NH2+][C@H]2CCCC[C@@H]2[NH2+]1.[Cl-].[Cl-]` [47OMESS(II)], the GI50 in data set [1] (72 h drug exposure) was found to be 350 ± 26 nM; in data set [3] (72 h drug exposure), 1300 ± 67 nM; in [4] (72 h drug exposure), 170 ± 10 nM; in [5] it was 390 ± 60 nM; in [6] (72 h drug exposure), 230 ± 7 nM; in [7] it was 240 ± 42 nM. The GI50 in data set [8] (72 h drug exposure) came out at 500 ± 58 nM; in [9], 150 ± 45 nM; in data set [10], 430 ± 37 nM; in data set [11], 2600 ± 260 nM; in [12] it was 85 ± 4.8 nM; in data set [13] it was 120 ± 16 nM. The “Resistance factor (RF)” value in data set [2] was 0.739. Besides, in data set [9], the “selectivity towards MCF-7 compared to MCF10A (cytotoxicity)” value is recorded as 3 fold.

Regarding `COc1cc[n+]2c3c1ccc1c(OC)cc[n+](c13)[Pt-2]21([OH])([OH])[NH2+][C@H]2CCCC[C@@H]2[NH2+]1.O=[N+]([O-])[O-].O=[N+]([O-])[O-]` [47OMESS(IV)], the GI50 in data set [1] (72 h drug exposure) was 3300 ± 590 nM; in data set [3] (72 h drug exposure), 7600 ± 1800 nM; in [4] (72 h drug exposure), 1300 ± 58 nM; in data set [5] it was 2600 ± 390 nM; in data set [6] (72 h drug exposure) it was 1700 ± 230 nM; in data set [7], 1900 ± 460 nM. The concentration for 50% growth inhibition (GI50) in data set [8] (72 h drug exposure) came out at 3100 ± 210 nM; in data set [9], 510 ± 168 nM; in [10] it was 3700 ± 380 nM; in [11], 33000 ± 3200 nM; in data set [12], 270 ± 38 nM; in [13], 520 ± 85 nM. Also, in data set [2], the “Resistance factor (RF)” value amounted to 0.765. Besides, the “selectivity towards MCF-7 compared to MCF10A (cytotoxicity)” value in data set [9] is reported as 7 fold.

In the case of `O=C(O)CCCC[C@@H]1SC[C@@H]2NC(=O)N[C@@H]21` [Biotin, biotin], the GI50 was above 50000 nM in data set [1] (Homo sapiens, A-431, 72 h drug exposure); above 50000 nM in [3] (SJ-G2, 72 h drug exposure); above 50000 nM in [4] (setting [25]); above 50000 nM in data set [5]; above 50000 nM in data set [6] (setting [25]); above 50000 nM in data set [7]. Also, the GI50 is above 50000 nM in data set [8] (Homo sapiens, NCI-H460, 72 h drug exposure); above 50000 nM in data set [9] (Homo sapiens, MCF7); above 50000 nM in data set [10] (Homo sapiens, MCF-10A); above 50000 nM in [11] (Homo sapiens, BE(2)-C); above 50000 nM in data set [12] (Homo sapiens, DU-145); above 50000 nM in data set [13] (Homo sapiens, HT-29).

As for `O=C1[O][Pt]2([NH][C@@H]3CCCC[C@H]3[NH]2)[O]C1=O` [Oxaliplatin, oxaliplatin], in data set [2], the “Resistance factor (RF)” value turned out to be 5.138. Further, the 50% growth inhibitory concentration (GI50) was 1600 ± 100 nM in [14]; 3000 ± 1200 nM in data set [15]; 500 ± 100 nM in [16]; 160 nM in data set [17]; 2900 ± 400 nM in [18]; 822 ± 130 nM in data set [19]. The GI50 in data set [20] was 900 ± 200 nM; in data set [21], 900 ± 200 nM; in data set [22] it was 900 ± 200 nM; in [23] it was 1800 ± 200 nM; in data set [24], 4100 ± 500 nM.

(Values after paper PMC9853328, “Potent Platinum(IV) Prodrugs That Incorporate a Biotin Moiety to Selectively Target Cancer Cells” (Pharmaceutics, 2022).)
